Assay [1] has as its target T1, Hck (Homo sapiens, UniProt P08631).
T1 construct: SH3 domain (p59 Hck amino acids 80–144); also SH3-SH2-linker (84–261) and near-full-length Hck (84–524)
Briefly: 1H-15N HSQC NMR titration; also SPR (KD […], near-full-length) and HDX-MS. It counts as binding.

For a further assay, the target named is T2, Lyn (Homo sapiens, UniProt P07948).
T2 construct: near-full-length (SH3-SH2-kinase-tail)
Briefly: SPR. It counts as binding.

Assay [2] concerns the target T3, Hck (Homo sapiens, UniProt P08631, H284A/T285A/Q523E/Q524E/Q525I).
T3 construct: near-full-length Hck (p59 amino acids 84–524, modified tail YEEIP)
The assay is described as follows: kinetic kinase assay (ADP Quest), activation of the mutant kinase. In kind it is biochemical.

In a further assay the target is T4, Src (Homo sapiens, UniProt P12931).
T4 construct: near-full-length (SH3-SH2-kinase-tail)
T4 sequence (P12931 2-536): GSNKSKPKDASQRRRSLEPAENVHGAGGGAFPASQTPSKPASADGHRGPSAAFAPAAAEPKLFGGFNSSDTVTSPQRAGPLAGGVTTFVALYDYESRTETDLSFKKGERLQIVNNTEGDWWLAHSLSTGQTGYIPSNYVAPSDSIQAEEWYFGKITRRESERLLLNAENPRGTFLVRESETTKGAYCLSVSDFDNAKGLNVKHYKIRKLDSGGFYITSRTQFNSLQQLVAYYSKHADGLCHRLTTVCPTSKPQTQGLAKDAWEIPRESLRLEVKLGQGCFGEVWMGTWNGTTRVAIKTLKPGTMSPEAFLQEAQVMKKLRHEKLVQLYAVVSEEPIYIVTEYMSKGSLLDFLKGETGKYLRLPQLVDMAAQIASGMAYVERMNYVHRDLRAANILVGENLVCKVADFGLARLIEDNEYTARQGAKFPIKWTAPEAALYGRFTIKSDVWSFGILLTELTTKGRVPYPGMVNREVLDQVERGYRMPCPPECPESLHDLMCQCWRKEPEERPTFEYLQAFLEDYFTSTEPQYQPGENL
Briefly: SPR. It counts as binding.

The target in assay [3] is T1, Hck. The assay is described as follows: 1H-15N HSQC NMR titration; also SPR (KD […], near-full-length), HDX-MS and kinase activation. It counts as binding.

T1 sequence (P08631 75-139): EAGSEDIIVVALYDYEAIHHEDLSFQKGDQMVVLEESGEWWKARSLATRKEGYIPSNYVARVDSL
T2 sequence (P07948 2-512): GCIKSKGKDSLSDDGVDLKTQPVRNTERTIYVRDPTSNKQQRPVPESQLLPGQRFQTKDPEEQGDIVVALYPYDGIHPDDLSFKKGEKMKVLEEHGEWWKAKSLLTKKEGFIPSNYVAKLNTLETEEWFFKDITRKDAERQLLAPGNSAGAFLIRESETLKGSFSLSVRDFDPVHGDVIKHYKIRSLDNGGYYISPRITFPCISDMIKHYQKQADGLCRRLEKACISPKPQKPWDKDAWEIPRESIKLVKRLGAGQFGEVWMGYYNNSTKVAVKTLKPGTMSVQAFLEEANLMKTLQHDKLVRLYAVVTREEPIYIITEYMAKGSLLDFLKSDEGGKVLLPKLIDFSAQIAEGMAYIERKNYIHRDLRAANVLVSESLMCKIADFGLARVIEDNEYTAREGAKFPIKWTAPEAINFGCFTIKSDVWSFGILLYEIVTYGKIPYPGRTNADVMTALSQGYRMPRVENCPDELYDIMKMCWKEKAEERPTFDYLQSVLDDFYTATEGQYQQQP
T3 sequence (P08631 79-526 H284A/T285A/Q523E/Q524E/Q525I): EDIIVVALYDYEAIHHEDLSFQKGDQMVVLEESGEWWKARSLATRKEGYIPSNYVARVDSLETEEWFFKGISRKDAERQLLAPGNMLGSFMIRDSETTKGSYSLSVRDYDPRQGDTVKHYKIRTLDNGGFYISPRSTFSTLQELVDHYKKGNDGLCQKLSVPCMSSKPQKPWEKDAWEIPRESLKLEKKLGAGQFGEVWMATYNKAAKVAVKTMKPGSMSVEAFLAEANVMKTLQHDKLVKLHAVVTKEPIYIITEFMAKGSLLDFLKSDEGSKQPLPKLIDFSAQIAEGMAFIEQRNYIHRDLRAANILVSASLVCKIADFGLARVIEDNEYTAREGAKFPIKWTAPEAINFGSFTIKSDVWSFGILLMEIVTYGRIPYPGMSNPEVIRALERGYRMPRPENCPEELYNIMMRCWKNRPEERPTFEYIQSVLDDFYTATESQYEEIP

Take `CC(C)Nc1ccnc(NCc2cccnc2Oc2ccc(F)cc2)n1` [PDA1]: the Kd (usually a measure of binding affinity in units of concentration) stood at 42.6 ± 4.7 µM on Hck [1], 74.9 ± 19.9 µM on Lyn and 55 ± 2.18 µM on Src. Moreover, the “kinetic kinase assay (ADP Quest), activation of the mutant kinase” value on Hck [2] is “Both PDA1 and PDA2 activated Hck-HTA (Fig. 7B), unlike WT Hck, which is only activated by PDA2”.

As for `Cc1cnc(NCc2ccccc2-n2ccnc2)nc1N(C)C` [PDA2], the Kd at Hck [3] was determined as 65.1 ± 3.1 µM; on Lyn, 180 ± 33.7 µM; at Src, 236 ± 18.1 µM.

Source of the values: publication PMC11786751, “An SH3-binding allosteric modulator stabilizes the global conformation of the AML-associated Src-family kinase, Hck” (The Journal of Biological Chemistry, 2024).
